Test results: US20240287138A1, “CYCLIC PEPTIDES FOR INHIBITING TNF RECEPTOR 1 ACTIVITY” (Merck Sharp & Dohme LLC, priority 2023, published 2024)
Read-outs that look alike come from different tables or passages of the source. Numbered stars: 1 amine (or outer) side, 2 acyl side, 3 side chain; on linkers, the order of the positions; unused ones are H or OH. Bridge positions count the residues as written; N and C are the ends. Square brackets hold non-standard residues; d marks the D form. Peptide text beside a SMILES is read from it. Trp(βS-Me,7-OMe) = COc1cccc2c([C@H](C)[C@H](N)C(=O)O)c[nH]c12; Phe(3R-OH) = O=C([C@@H](N[*:1])[C@H](O[*:3])c1ccccc1)[*:2]; Morpholine(3S-CO,6,6-Me2) = CC1(C)CN[C@H](C(=O)O)CO1; Trp(7-Cl) = N[C@@H](Cc1c[nH]c2c(Cl)cccc12)C(=O)O; Phe(3-COOH) = N[C@@H](Cc1cccc(C(=O)O)c1)C(=O)O; Phe(4-CONH2) = NC(=O)c1ccc(C[C@H](N)C(=O)O)cc1; Phe(4-COOH) = N[C@@H](Cc1ccc(C(=O)O)cc1)C(=O)O; Trp(7-aza) = N[C@@H](Cc1c[nH]c2ncccc12)C(=O)O; 3Pal(6-OMe) = COc1ccc(C[C@H](N)C(=O)O)cn1; X58 = O=C([C@H](CCCCC(F)(F)F)N[*:1])[*:2]; Pip(5R-OH) = O=C(O)[C@@H]1CC[C@@H](O)CN1; X13 = O=C([C@H]1CC[C@@H](N[*:1])C1)[*:2]; X1 = O=C([C@@H]1CC[C@H](N[*:1])C1)[*:2]; Ala(2-furyl) = N[C@@H](Cc1ccco1)C(=O)O; Dap(CONH2) = NC(=O)NC[C@H](N)C(=O)O; Lys(Me2) = CN(C)CCCC[C@H](N)C(=O)O; Val(3-OH) = CC(C)(O)[C@H](N)C(=O)O; Pip(4-aza) = O=C(O)[C@@H]1CNCCN1; 4Pal = N[C@@H](Cc1ccncc1)C(=O)O; NMeE = CN[C@@H](CCC(=O)O)C(=O)O; X33 = N#CCCN(CC(=O)[*:2])[*:1]; Pip = O=C(O)[C@@H]1CCCCN1; αMeS = C[C@](N)(CO)C(=O)O; Nle = CCCC[C@H](N)C(=O)O; Sar = CNCC(=O)O

What was measured:
[1] = molecular target: T1, human soluble TNFR1 (sTNFR1) (Homo sapiens, UniProt P19438); assay: Human sTNFR1-peptide displacement assay (LanthaScreen Eu TR-FRET binding assay)
T1 construct: made in house; host or cells: Sf21 (baculovirus)
T1 sequence (P19438 with tags, fused parts or gaps): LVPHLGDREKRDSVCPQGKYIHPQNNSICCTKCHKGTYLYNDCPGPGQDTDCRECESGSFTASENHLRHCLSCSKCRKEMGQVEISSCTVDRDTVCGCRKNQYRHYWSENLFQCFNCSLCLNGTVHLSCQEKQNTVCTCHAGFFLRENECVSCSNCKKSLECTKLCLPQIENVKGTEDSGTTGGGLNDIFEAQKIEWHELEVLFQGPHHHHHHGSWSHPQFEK
How it was run: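 Readout is the 665/615 nm TR-FRET ratio (Eu anti-His donor, streptavidin-Alexa647 acceptor), normalized to DMSO and saturating displacer, fit by Morrison-based five-parameter logistic for Kd^app. His-tagged sTNFR1 (1-211) prebound to 100 nM biotinylated peptide SEQ ID NO.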

[2] = molecular target: T2, TNFα-induced NF-κB signal transduction pathway (TNFR1 signaling) in THP-1 cells (Homo sapiens, UniProt P19438); assay: THP-1 Lucia NF-κB reporter cell assay, inhibition of TNFα-induced NF-κB signaling; format: cell-based; settings: THP-1 NF-κB Lucia reporter cells, 10 ng/mL TNFα, 16-18 h, secreted luciferase; read-out: THP-1 IC50
T2 sequence (P19438 30-455): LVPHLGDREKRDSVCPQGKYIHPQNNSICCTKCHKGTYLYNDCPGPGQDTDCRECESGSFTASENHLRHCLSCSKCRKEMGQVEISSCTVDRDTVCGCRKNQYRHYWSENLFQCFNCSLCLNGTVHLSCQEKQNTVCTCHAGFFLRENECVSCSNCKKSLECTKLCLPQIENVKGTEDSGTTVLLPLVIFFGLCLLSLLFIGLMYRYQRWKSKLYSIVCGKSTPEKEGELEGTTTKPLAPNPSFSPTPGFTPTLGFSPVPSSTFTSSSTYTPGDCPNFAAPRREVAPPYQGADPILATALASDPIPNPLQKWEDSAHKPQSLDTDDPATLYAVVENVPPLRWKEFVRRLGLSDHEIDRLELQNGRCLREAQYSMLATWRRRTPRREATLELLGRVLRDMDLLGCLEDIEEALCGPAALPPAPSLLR
How it was run: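 THP-1 Lucia NF-κB cells, 20k/well, no selection antibiotics; peptide pre-inc 1 h 37 °C; + recombinant human TNFα 10 ng/mL final; o.n.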

Row | SMILES | IC50 [1] [nM] | Kd [1] [nM] | IC50 [2] [nM] | Kd ([1]; displacement of biotinylated peptide SEQ ID NO. 1 from sTNFR1, 20 point titration, 5-parameter fit based on Morrison equation (tight binding), read-out: TR-FRET Kd^app) [nM] | IC50 ([1]; displacement of biotinylated peptide SEQ ID NO. 1 from sTNFR1, weaker binders, 10 pts titration, 4-parameter logistic model, read-out: TR-FRET, IC50) [nM]
1 | CCCC[C@@H]1NC(=O)CSC[C@@H](C(N)=O)NC(=O)[C@H]([C@@H](C)c2c[nH]c3c(OC)cccc23)NC(=O)CN(C)C(=O)[C@H](Cc2ccc(O)cc2)NC(=O)[C@H](Cc2ccc(C(=O)O)cc2)NC(=O)[C@](C)(CO)NC(=O)[C@H](Cc2c[nH]c3c(Cl)cccc23)NC(=O)[C@H](Cc2ccncc2)NC(=O)[C@H](CC(N)=O)NC(=O)[C@H](CCC(=O)O)N(C)C(=O)[C@H](Cc2c[nH]c3ncccc23)NC(=O)[C@H]([C@H](O)c2ccccc2)NC(=O)[C@H](Cc2ccncc2)NC1=O [SEQ ID NO. 211] ({CH2CO}-[Nle][4Pal][Phe(3R-OH)][Trp(7-aza)][NMeE]N[4Pal][Trp(7-Cl)][αMeS][Phe(4-COOH)]Y[Sar][Trp(βS-Me,7-OMe)]C-NH2; thioether N-14) | 0.79 | 0.63 | 3.3 |  | 
2 | COc1cccc2c([C@H](C)[C@@H]3NC(=O)CN(C)C(=O)[C@H](Cc4ccc(O)cc4)NC(=O)[C@H](Cc4ccc(C(=O)O)cc4)NC(=O)[C@](C)(CO)NC(=O)[C@H](Cc4c[nH]c5c(Cl)cccc45)NC(=O)[C@H](Cc4ccncc4)NC(=O)[C@H](CC(N)=O)NC(=O)[C@H](CCC(=O)O)N(C)C(=O)[C@H](Cc4c[nH]c5ccccc45)NC(=O)[C@@H]4CNCCN4C(=O)[C@H](Cc4ccncc4)NC(=O)[C@H](CCCCC(F)(F)F)NC(=O)[C@@H]4CC[C@@H](C4)NC3=O)c[nH]c12 [SEQ ID NO. 213] (cyclo([4Pal][Trp(7-Cl)][αMeS][Phe(4-COOH)]Y[Sar][Trp(βS-Me,7-OMe)][X1][X58][4Pal][Pip(4-aza)]W[NMeE]N)) |  | 0.31 | 1 |  | 
3 | CCCC[C@@H]1NC(=O)[C@H]2CC[C@H](C2)NC(=O)[C@H]([C@@H](C)c2c[nH]c3c(OC)cccc23)NC(=O)CN(C)C(=O)[C@H](Cc2ccc(O)cc2)NC(=O)[C@H](Cc2ccc(C(N)=O)cc2)NC(=O)[C@](C)(CO)NC(=O)[C@H](Cc2c[nH]c3c(Cl)cccc23)NC(=O)[C@H](Cc2ccncc2)NC(=O)[C@H](CC(N)=O)NC(=O)[C@H](CCC(=O)O)N(C)C(=O)[C@H](Cc2c[nH]c3ccccc23)NC(=O)[C@@H]2COC(C)(C)CN2C(=O)[C@H](Cc2ccncc2)NC1=O [SEQ ID NO. 214] (cyclo([4Pal][Trp(7-Cl)][αMeS][Phe(4-CONH2)]Y[Sar][Trp(βS-Me,7-OMe)][X13][Nle][4Pal][Morpholine(3S-CO,6,6-Me2)]W[NMeE]N)) |  |  | 3.7 | 0.61 | 0.95
4 | CCCC[C@@H]1NC(=O)CSC[C@@H](C(N)=O)NC(=O)[C@H]([C@@H](C)c2c[nH]c3c(OC)cccc23)NC(=O)CN(C)C(=O)[C@H](Cc2ccc(O)cc2)NC(=O)[C@H](Cc2ccc(C(=O)O)cc2)NC(=O)[C@](C)(CO)NC(=O)[C@H](Cc2c[nH]c3c(Cl)cccc23)NC(=O)[C@H](Cc2ccncc2)NC(=O)[C@H](CC(N)=O)NC(=O)[C@H](CCC(=O)O)N(C)C(=O)[C@H](Cc2c[nH]c3ncccc23)NC(=O)[C@H](C(C)(C)O)NC(=O)[C@H](Cc2c[nH]cn2)NC1=O [SEQ ID NO. 217] ({CH2CO}-[Nle]H[Val(3-OH)][Trp(7-aza)][NMeE]N[4Pal][Trp(7-Cl)][αMeS][Phe(4-COOH)]Y[Sar][Trp(βS-Me,7-OMe)]C-NH2; thioether N-14) | 1 | 0.73 | 4.4 |  | 
5 | CCCC[C@@H]1NC(=O)[C@@H]2CC[C@@H](C2)NC(=O)[C@H]([C@@H](C)c2c[nH]c3c(OC)cccc23)NC(=O)CN(C)C(=O)[C@H](Cc2ccc(O)cc2)NC(=O)[C@H](Cc2ccc(C(=O)O)cc2)NC(=O)[C@](C)(CO)NC(=O)[C@H](Cc2c[nH]c3c(Cl)cccc23)NC(=O)[C@H](Cc2ccncc2)NC(=O)[C@H](CNC(N)=O)NC(=O)[C@H](CCC(=O)O)N(C)C(=O)[C@H](Cc2c[nH]c3ccccc23)NC(=O)[C@@H]2CNCCN2C(=O)[C@H](Cc2ccncc2)NC1=O [SEQ ID NO. 225] (cyclo([4Pal][Trp(7-Cl)][αMeS][Phe(4-COOH)]Y[Sar][Trp(βS-Me,7-OMe)][X1][Nle][4Pal][Pip(4-aza)]W[NMeE][Dap(CONH2)])) |  | 0.27 | 0.9 |  | 
6 | CCCC[C@@H]1NC(=O)CSC[C@@H](C(N)=O)NC(=O)[C@H]([C@@H](C)c2c[nH]c3c(OC)cccc23)NC(=O)CN(C)C(=O)[C@H](Cc2ccc(O)cc2)NC(=O)[C@H](Cc2ccc(C(=O)O)cc2)NC(=O)[C@](C)(CO)NC(=O)[C@H](Cc2c[nH]c3c(Cl)cccc23)NC(=O)[C@H](Cc2ccncc2)NC(=O)[C@H](CC(N)=O)NC(=O)CN(CCC#N)C(=O)[C@H](Cc2c[nH]c3ncccc23)NC(=O)[C@@H]2CCCCN2C(=O)[C@H](Cc2ccncc2)NC1=O [SEQ ID NO. 228] ({CH2CO}-[Nle][4Pal][Pip][Trp(7-aza)][X33]N[4Pal][Trp(7-Cl)][αMeS][Phe(4-COOH)]Y[Sar][Trp(βS-Me,7-OMe)]C-NH2; thioether N-14) | 0.7 | 0.64 | 4 |  | 
7 | CCCC[C@@H]1NC(=O)CSC[C@@H](C(N)=O)NC(=O)[C@H]([C@@H](C)c2c[nH]c3c(OC)cccc23)NC(=O)CN(C)C(=O)[C@H](Cc2ccc(O)cc2)NC(=O)[C@H](Cc2ccc(C(=O)O)cc2)NC(=O)[C@](C)(CO)NC(=O)[C@H](Cc2c[nH]c3c(Cl)cccc23)NC(=O)[C@H](Cc2ccco2)NC(=O)[C@H](CC(N)=O)NC(=O)[C@H]2CCCN2C(=O)[C@H](Cc2c[nH]c3ccccc23)NC(=O)[C@@H]2CNCCN2C(=O)[C@H](Cc2ccncc2)NC1=O [SEQ ID NO. 236] ({CH2CO}-[Nle][4Pal][Pip(4-aza)]W[dP]N[Ala(2-furyl)][Trp(7-Cl)][αMeS][Phe(4-COOH)]Y[Sar][Trp(βS-Me,7-OMe)]C-NH2; thioether N-14) | 0.9 |  | 4.2 |  | 
8 | COc1cccc2c([C@H](C)[C@@H]3NC(=O)CN(C)C(=O)[C@H](Cc4ccc(O)cc4)NC(=O)[C@H](Cc4ccc(C(N)=O)cc4)NC(=O)[C@](C)(CO)NC(=O)[C@H](Cc4c[nH]c5c(Cl)cccc45)NC(=O)[C@H](Cc4ccncc4)NC(=O)[C@H](CC(N)=O)NC(=O)[C@H](CCC(=O)O)N(C)C(=O)[C@H](Cc4c[nH]c5ccccc45)NC(=O)[C@@H]4CC[C@@H](O)CN4C(=O)[C@H](Cc4ccncc4)NC(=O)[C@H](CCCCN(C)C)NC(=O)[C@@H]4CC[C@@H](C4)NC3=O)c[nH]c12 [SEQ ID NO. 238] (cyclo([4Pal][Trp(7-Cl)][αMeS][Phe(4-CONH2)]Y[Sar][Trp(βS-Me,7-OMe)][X1][Lys(Me2)][4Pal][Pip(5R-OH)]W[NMeE]N)) |  | 0.12 | 0.7 |  | 
9 | CCCC[C@@H]1NC(=O)[C@@H]2CC[C@@H](C2)NC(=O)[C@H]([C@@H](C)c2c[nH]c3c(OC)cccc23)NC(=O)CN(C)C(=O)[C@H](Cc2ccc(O)cc2)NC(=O)[C@H](Cc2ccc(C(=O)O)cc2)NC(=O)[C@](C)(CO)NC(=O)[C@H](Cc2c[nH]c3c(Cl)cccc23)NC(=O)[C@H](Cc2ccncc2)NC(=O)[C@H](CC(N)=O)NC(=O)[C@H](CCC(=O)O)N(C)C(=O)[C@H](Cc2c[nH]c3ccccc23)NC(=O)[C@@H]2CNCCN2C(=O)[C@H](Cc2ccc(OC)nc2)NC1=O [SEQ ID NO. 241] (cyclo([4Pal][Trp(7-Cl)][αMeS][Phe(4-COOH)]Y[Sar][Trp(βS-Me,7-OMe)][X1][Nle][3Pal(6-OMe)][Pip(4-aza)]W[NMeE]N)) |  | 0.24 | 1.4 |  | 
10 | CCCC[C@@H]1NC(=O)CSC[C@@H](C(N)=O)NC(=O)[C@H]([C@@H](C)c2c[nH]c3c(OC)cccc23)NC(=O)CN(C)C(=O)[C@H](Cc2ccc(O)cc2)NC(=O)[C@H](Cc2cccc(C(=O)O)c2)NC(=O)[C@](C)(CO)NC(=O)[C@H](Cc2c[nH]c3c(Cl)cccc23)NC(=O)[C@H](Cc2ccncc2)NC(=O)[C@H](CC(N)=O)NC(=O)[C@H](CCC(=O)O)N(C)C(=O)[C@H](Cc2c[nH]c3ccccc23)NC(=O)[C@@H]2CNCCN2C(=O)[C@H](Cc2ccncc2)NC1=O [SEQ ID NO. 249] ({CH2CO}-[Nle][4Pal][Pip(4-aza)]W[NMeE]N[4Pal][Trp(7-Cl)][αMeS][Phe(3-COOH)]Y[Sar][Trp(βS-Me,7-OMe)]C-NH2; thioether N-14) | 1 |  | 4.4 |  | 
